From PubChem BioAssay (NCI)
Several values for one entry are separate records, joined by “and”; a condition that tells them apart may be missing. Equal values may be shown once.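 Tested at 5 concentrations; 48 h exposure; 96-well plates; endpoints linearly interpolated, else capped at highest concentration. Here, GI50 denotes the concentration required for 50% inhibition of growth. TGI is the concentration that stops growth completely.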

Key:
Assay in all cases: inhibition of tumour cell growth, NCI panel, 48 h
[1] = tested on: DMS 114 small cell lung
[2] = tested on: DMS 273 small cell lung
[3] = tested on: LXFL 529 NSCLC
[4] = tested on: M19-MEL melanoma
[5] = tested on: RXF-631 renal
[6] = tested on: SNB-78 CNS
[7] = tested on: MDA-N
[8] = tested on: KM20L2 colon
[9] = tested on: HOP-18 NSCLC

| SMILES | TGI [1] | TGI [2] | TGI [3] | TGI [4] | TGI [5] | TGI [6] | TGI [8] | TGI [9] | other results |
| --- | --- | --- | --- | --- | --- | --- | --- | --- | --- |
| C[Si](C)(C)C(CCCCSc1ccccc1)(Sc1ccccc1)Sc1ccccc1 | > 100 µM | > 100 µM | > 100 µM | > 100 µM | > 100 µM | > 100 µM | – | – | – |
| CCCn1cnc2c(SCC(=O)O)nc(N)nc21 | – | – | – | – | – | – | – | – | TGI [7]: > 100 µM |
| Cc1cc(Cl)ccc1OCC(=O)Nc1nc(N)nc(N)n1 | – | – | – | – | – | – | – | – | TGI [7]: > 100 µM |
| O=C(C#Cc1ccccc1)N1c2ccccc2CC1c1c[nH]c2ccccc12 (configuration not stated) | 28.8 µM | 30 µM | 27.7 µM | 43.1 µM | 27.7 µM | 36.9 µM | 67.5 µM | – | – |
| CCc1ccccc1NC(=O)/C=C/c1ccccc1 | – | – | – | – | – | – | – | – | TGI [7]: > 100 µM |
| COc1ccc(OC(C(=O)O)C(C)C)c2c1CCCC2=O (configuration not stated) | > 100 µM | > 100 µM | > 100 µM | > 100 µM | > 100 µM | > 100 µM | > 100 µM | > 100 µM | – |
| COc1ccc(-c2cc(C(=O)Nc3cc(C(F)(F)F)cc(C(F)(F)F)c3)c3ccccc3n2)cc1 | 21.1 µM | 21.1 µM | 20.9 µM | 63 µM | – | 52.1 µM | 31.4 µM | 51.8 µM | – |
| [O-]c1ccccc1C=Nc1ccc2c(c1)CCC2.[O-]c1ccccc1C=Nc1ccc2c(c1)CCC2.[O]=[U+2]=[O] | > 100 µM | > 100 µM | > 100 µM | > 100 µM | > 100 µM | > 100 µM | > 100 µM | > 100 µM | GI50 [1]: 7.05 µM; GI50 [2]: 14.2 µM; GI50 [9]: 8.74 µM; GI50 [8]: 56.6 µM; GI50 [3]: 28.4 µM; GI50 [4]: > 100 µM; GI50 [5]: > 100 µM; GI50 [6]: > 100 µM |
| CN(C)c1nc(=NCc2ccco2)ss1 | – | > 34.6 µM | > 100 µM | > 43.6 µM | – | > 100 µM | > 100 µM | > 100 µM | TGI [7]: 33.7 µM |
| O=c1nc(-c2ccccc2)cc(CC(O)c2ccc(Cl)c(Cl)c2)[nH]1 (configuration not stated) | > 100 µM | > 100 µM | > 100 µM | > 100 µM | – | – | > 100 µM | > 100 µM | – |
| O=C1C(=O)N(c2ccc(Cl)cc2)C(=O)C(=O)C1c1nc2ccccc2s1 | > 100 µM | > 100 µM | > 100 µM | > 100 µM | – | > 100 µM | > 100 µM | > 100 µM | – |
| O=C1OC(c2ccccc2)=N/C1=C\c1ccc(Oc2ccc(Cl)c(Cl)c2)cc1 | 35.6 µM | – | 85.6 µM | > 100 µM | – | 85.7 µM | > 100 µM | > 100 µM | – |
| COC(=O)CC(C(C(=O)OCc1ccccc1)C(C)O)N1C(=O)OC(c2ccccc2)C1c1ccccc1 (configuration not stated) | > 100 µM | > 100 µM | > 100 µM | > 100 µM | > 100 µM | – | > 100 µM | – | – |
| CCOC(=O)CCC1(C(=O)OCC)CCCC1=O (configuration not stated) | > 100 µM | > 100 µM | > 100 µM | > 100 µM | > 100 µM | > 100 µM | > 100 µM | > 100 µM | – |
| COC(=O)CCC12CCC(=O)C1[C@@H](C(=O)OC)C[C@H]2C(=O)OC (some centres not stated) | > 100 µM | > 100 µM | > 100 µM | > 100 µM | > 100 µM | > 100 µM | > 100 µM | > 100 µM | – |
| C#CCNC(=O)NCCCCC(NC(=O)OCc1ccccc1)C(=O)OCc1ccccc1 (configuration not stated) | > 73.5 µM | > 100 µM | > 100 µM | > 100 µM | > 100 µM | > 100 µM | > 100 µM | > 100 µM | – |
| O=c1cc(-c2ccc(O)cc2)oc2cc(O[C@@H]3O[C@H](CO)[C@@H](O)[C@H](O)[C@H]3O)cc(O)c12 | – | – | – | – | – | – | – | – | TGI [7]: > 100 µM |
| O=c1cccccc1NCCCCCCCNc1cccccc1=O | – | > 100 µM | > 100 µM | 84.8 µM | 35 µM | > 100 µM | > 100 µM | – | – |
| O=C(O)c1cc(=O)c2c([nH]c3ccccc32)s1 | > 100 µM | – | > 100 µM | > 100 µM | > 100 µM | > 100 µM | > 100 µM | – | – |
| Cl/C(N=Nc1ccccc1)=N/Nc1ccccc1 | – | > 100 µM | > 100 µM | > 100 µM | > 100 µM | > 100 µM | > 100 µM | > 100 µM | – |
| O=[N+]([O-])c1cccc(-c2nc(-c3ccccc3)c(-c3ccccc3)[nH]2)c1 | – | – | – | – | – | – | – | – | TGI [7]: > 100 µM |

| SMILES | TGI [1] | TGI [2] | TGI [3] | TGI [4] | TGI [5] | TGI [6] | TGI [8] | TGI [9] | other results |
| --- | --- | --- | --- | --- | --- | --- | --- | --- | --- |
| COC(=O)C1C(=O)CC2CCCCC21 (configuration not stated) | > 100 µM | > 100 µM | > 100 µM | > 100 µM | – | > 100 µM | > 100 µM | – | – |
| Cc1nc2ccc(Br)cc2c(=O)n1-c1ccc(NC2OCC(O)C(O)C2O)cc1 (configuration not stated) | – | – | – | – | – | – | – | – | GI50 [7]: 43.9 µM and > 100 µM; TGI [7]: > 100 µM |
| Cc1cc(NC(=O)C2C3C=CC(O3)C2C(=O)O)no1 (configuration not stated) | 29.9 µM | 34.2 µM | 46.6 µM | 77.7 µM | > 100 µM | > 100 µM | 26.6 µM | > 100 µM | – |
| O=[N+]([O-])c1nccn1CC(O)CN1CCCCC1 (configuration not stated) | – | – | – | – | – | – | – | – | TGI [7]: > 100 µM |
| CC1(C)C2CCC3(OCCO3)C1C(O)C2 (configuration not stated) | – | > 100 µM | > 100 µM | > 100 µM | > 100 µM | > 100 µM | > 100 µM | > 100 µM | – |
| CN(C)/C=N\c1ccnc(=O)[nH]1 | > 100 µM | > 100 µM | > 100 µM | > 100 µM | > 100 µM | > 100 µM | > 100 µM | > 100 µM | – |
| CC(C)(O)/C=C/C(=O)[C@](C)(O)[C@H]1[C@H](O)C[C@@]2(C)[C@@H]3CC=C4[C@@H](C[C@H](O)C(=O)C4(C)C)[C@]3(C)C(=O)C[C@]12C | 0.948 µM and 9.41 µM | 0.543 µM | 4.09 µM | 20.7 µM | 0.549 µM and 1.97 µM | 0.92 µM and 1.67 µM | – | 0.41 µM and 0.394 µM | GI50 [1]: 0.108 µM; GI50 [2]: 0.108 µM; GI50 [9]: 0.0838 µM; GI50 [8]: 0.0872 µM; GI50 [3]: 0.0484 µM; GI50 [4]: 0.0781 µM; GI50 [5]: 0.116 µM and 0.34 µM; GI50 [6]: 0.203 µM |
| N#C/C(=C\c1cccc(O)c1O)C(N)=O | > 100 µM | > 100 µM | > 100 µM | > 100 µM | > 100 µM | > 100 µM | > 100 µM | – | – |
| CC(=O)NC(CCCCN)C(=O)NCc1ccccc1 (configuration not stated) | > 100 µM | > 100 µM | > 100 µM | > 100 µM | – | – | > 100 µM | – | – |
| Cc1c(C(=O)/C=C/C=C/c2ccccc2)[n+](=O)c2ccccc2n1[O-] | > 100 µM | > 100 µM | 51.2 µM | > 100 µM | – | > 100 µM | > 100 µM | > 100 µM | – |
| CC1(c2cc3c(cc2Br)OCO3)SCCCS1 | > 100 µM | > 100 µM | > 100 µM | > 100 µM | > 100 µM | > 100 µM | > 100 µM | – | – |
| Cc1ccc(Oc2ccccc2N)cc1 | > 100 µM | > 100 µM | > 100 µM | – | > 100 µM | > 100 µM | 30.4 µM | > 100 µM | – |
| NNc1cnn(-c2ccccc2)c(=O)c1Cl | > 100 µM | > 100 µM | > 100 µM | > 100 µM | – | > 100 µM | > 100 µM | > 100 µM | – |
| Cc1cccc2c1c1ccc3c(c1n2C)C(=O)C=CC3=O | 21.1 µM | 8.3 µM | 4.22 µM | 14.9 µM | 49.6 µM | 53.5 µM | 36.9 µM | 23.9 µM | – |
| CNc1ccc2ncccc2c1[N+](=O)[O-] | > 100 µM | > 100 µM | > 100 µM | > 100 µM | > 100 µM | > 100 µM | > 100 µM | > 100 µM | – |
| Cc1cc(C)nc(/C(=N\NC(N)=O)C(=O)Nc2nc3ccc(C)cc3s2)c1 | > 81.9 µM | > 93.5 µM | > 100 µM | > 100 µM | – | > 100 µM | > 100 µM | > 100 µM | – |
| CCOc1ccc(/C(C=O)=C(\Cl)c2ccc(OC)cc2)cc1 | > 100 µM | > 100 µM | > 100 µM | > 100 µM | – | > 100 µM | > 100 µM | > 100 µM | – |
| COC(=O)C(CCC(=O)CCl)N1C(=O)c2ccccc2C1=O (configuration not stated) | – | – | – | – | – | – | – | – | TGI [7]: 23.9 µM |
| C#CCNC(=O)ON1C(=O)CCC1=O | – | > 100 µM | > 100 µM | > 100 µM | > 100 µM | > 100 µM | > 100 µM | > 100 µM | – |
| CCc1cccc(C)c1NC(=O)CCc1nnc2s/c(=C\c3cccc4ccccc34)c(=O)n12 | > 100 µM | > 100 µM | > 100 µM | > 100 µM | > 100 µM | > 100 µM | > 100 µM | – | – |
| Cn1c(=O)c2[nH]c(SCCN3CCOCC3)nc2n(C)c1=S | – | – | – | – | – | – | – | – | TGI [7]: > 100 µM |
